Experimental data: patent US5780589A, “Ultraselective opioidmimetic peptides and pharmacological and therapeutic uses thereof” (The United States of America as represented by the …, priority 1994, dated 1998)
Entries after “also recorded” stand apart in the source; their conditions may differ. Read-outs that look alike come from different tables or passages of the source. Non-standard residues stand in square brackets, D forms with d. Residues, ends and D or L forms follow the SMILES beside them. No end group written: not given here. Dmt = Cc1cc(O)cc(C)c1C[C@H](N)C(=O)O; Tic = O=C(O)[C@@H]1Cc2ccccc2CN1; dTic = O=C(O)[C@H]1Cc2ccccc2CN1

Columns and labels:
[1] = molecular target: δ receptors (Mus musculus, UniProt P32300); details: for antagonist properties in MVD bioassay: in vitro mouse vas deferens
Description: (§1) The in vitro pharmacological assays were undertaken using published methods (32) based on the organ bath technique of Kosterlitz and Watt (50). For μ receptors, a 2-3 cm segment of guinea-pig ileum (GPI) mounted in a 20 mL organ bath and for δ receptors, a single mouse vas deferens (MVD) was obtained from a mature animal.

[2] = molecular target: μ receptors (Cavia porcellus, UniProt P97266); experiment: Guinea-pig ileum (GPI) bioassay, electrically stimulated contractions
Description: as §1

[3] = molecular target: T1, μ receptor (Rattus norvegicus, UniProt P33535); experiment: μ receptor binding, rat membrane synaptosomes, [3H]DAGO; details: rat synaptosomes (P2), mean ± SEM
T1 construct: Rat membrane synaptosome preparations (P2 fraction) were prepared as detailed previously; from tissue; host or cells: rat synaptosomal membranes (P2 fraction)
Description: (§2) Rat membrane synaptosome preparations (P2 fraction) were prepared as detailed previously, which included a preincubation step to reduce the presence of endogenous ligands and binding of G proteins (33,40). […] Samples were rapidly filtered through wetted glass fiber filters and thoroughly washed with 6 mL (3×2 mL) ice-cold 50 mM Tris-HCl, pH 7.5, containing 0.01-0.1% chicken egg albumin or bovine serum albumin. […] The filters were dried at 70° C. and the radioactivity determined after an overnight incubation period in CytoScint to maximize the radioactivity detected and reduce variability between samples. The IC50 values were converted to affinity constants (Ki) according to Cheng and Prusoff (48).

[4] = molecular target: T2, δ receptor (Rattus norvegicus, UniProt P33533); experiment: Multi-site (one- vs two-site) δ receptor binding analysis; details: for δ receptor binding model fitted: one-site vs two-site; for Percent low-affinity sites: two-site δ receptor fit; for Ki: Prism fit
T2 construct: Rat membrane synaptosome preparations (P2 fraction) were prepared as detailed previously; from tissue; host or cells: rat synaptosomal membranes (P2 fraction)
Description: as §2
Multi-site binding analyses, based on stringent statistical methods, were performed as described in Bryant et al. (41) and Attila et al. (49). Receptor assays were conducted in triplicate with 25-35 graded concentrations of peptide; the resulting curves were both individually assessed and combined from several distinct assays, and analyzed using Prism™ (v. 1.02, GraphPad, San Diego, Calif.).

[5] = test system: mice; experiment: Tail flick test (TFT), analgesia and morphine antagonism in mice; format: in vivo, CD-1 mice
Description: Animal procedures were conducted under protocols approved by the Animal Use and Care Committee, NIEHS, an AALAC accredited facility. Tail flick test (TFT) used a radiant heat source on the tail of Fisher 344 rats or CD-1 mice (52). The response was standardized by the subcutaneous (sc) injection of 5 mg morphine sulfate/kilogram (Kg) body weight or 0.1-0.25 mg morphine/Kg body weight by iv injection; peptides were injected in 100 μL volume in sterile saline. […] Intrathecal injection of peptides in mice used the method of Hylden and Wilcox (53). A base-line and cut-off 10 sec were determined in the TFT with naive and morphine-dosed animals, respectively,to prevent damage to the tail. 1 μg to 10 mg per kilogram of animal was used for iv, icv or sc; higher doses in the mg range were used for sc injection.

[6] = molecular target: T3, δ opioid receptor (Rattus norvegicus, UniProt P33533); experiment: δ receptor binding, rat membrane synaptosomes, [3H]DPDPE; details: for Ki: [3H]DPDPE, rat synaptosomes (P2), mean ± SEM; for μ/δ (receptor selectivity): ratio Ki μ / Ki δ; for selectivity change on D-Tic substitution: δ→μ
T3 construct: Rat membrane synaptosome preparations (P2 fraction) were prepared as detailed previously; from tissue; host or cells: rat synaptosomal membranes (P2 fraction)
Description: as §2

[7] = molecular target: T3, δ opioid receptor; details: data from Temussi et al. (39), cited from earlier work; for Ki: [3H]DPDPE; for μ/δ (receptor selectivity): ratio Ki μ / Ki δ
[8] = molecular target: T1, μ receptor; details: [3H]DAGO; data from Temussi et al. (39); cited from earlier work
[9] = concentration equivalent of pA2, against deltorphin C
[10] = high affinity δ site, read-out: Ki (nM) High
[11] = low affinity δ site, read-out: Ki (nM) Low
[12] = guinea-pig ileum, read-out: GPI IC50

T1 sequence (P33535 whole entry): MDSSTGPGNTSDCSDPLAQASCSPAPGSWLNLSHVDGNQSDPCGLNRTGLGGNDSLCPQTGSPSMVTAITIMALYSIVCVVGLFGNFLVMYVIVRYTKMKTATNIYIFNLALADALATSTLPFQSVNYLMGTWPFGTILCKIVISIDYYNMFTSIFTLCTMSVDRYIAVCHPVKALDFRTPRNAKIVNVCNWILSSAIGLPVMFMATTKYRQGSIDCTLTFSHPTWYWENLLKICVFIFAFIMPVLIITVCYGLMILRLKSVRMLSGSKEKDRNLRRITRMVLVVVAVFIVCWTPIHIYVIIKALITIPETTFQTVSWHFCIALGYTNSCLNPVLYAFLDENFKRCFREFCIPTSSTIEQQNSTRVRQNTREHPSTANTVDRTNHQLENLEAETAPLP
Sequence of μ receptors (P97266 whole entry, looked up): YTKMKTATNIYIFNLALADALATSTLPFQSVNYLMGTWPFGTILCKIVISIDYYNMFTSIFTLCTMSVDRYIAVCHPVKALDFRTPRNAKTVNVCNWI
Sequence of δ receptors (P32300 whole entry): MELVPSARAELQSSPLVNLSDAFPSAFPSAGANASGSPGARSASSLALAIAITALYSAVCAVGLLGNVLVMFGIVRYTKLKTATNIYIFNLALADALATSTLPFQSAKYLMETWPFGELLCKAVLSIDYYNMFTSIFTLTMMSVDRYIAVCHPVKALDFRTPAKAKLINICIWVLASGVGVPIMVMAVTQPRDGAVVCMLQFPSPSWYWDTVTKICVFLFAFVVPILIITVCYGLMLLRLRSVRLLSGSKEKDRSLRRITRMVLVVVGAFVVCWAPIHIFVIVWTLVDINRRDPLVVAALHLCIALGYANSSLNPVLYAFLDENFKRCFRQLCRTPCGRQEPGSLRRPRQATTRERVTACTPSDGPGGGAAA
T3 sequence (P33533 whole entry): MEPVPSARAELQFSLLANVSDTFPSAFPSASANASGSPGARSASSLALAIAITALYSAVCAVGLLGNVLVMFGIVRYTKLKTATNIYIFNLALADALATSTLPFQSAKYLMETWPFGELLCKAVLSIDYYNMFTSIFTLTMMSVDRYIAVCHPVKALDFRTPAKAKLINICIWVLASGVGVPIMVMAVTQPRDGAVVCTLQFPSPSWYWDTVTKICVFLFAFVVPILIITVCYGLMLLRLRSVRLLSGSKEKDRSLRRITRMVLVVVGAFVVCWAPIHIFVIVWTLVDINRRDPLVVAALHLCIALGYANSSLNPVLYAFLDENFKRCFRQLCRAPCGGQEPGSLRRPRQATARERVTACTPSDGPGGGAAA
T2 sequence (P33533 whole entry): as above

Oc1ccc2c3c1O[C@H]1c4[nH]c5ccccc5c4C[C@@]4(O)[C@@H](C2)N(CC2CC2)CC[C@]314 [Naltrindole, naltrindole, reference compound]
MVD pA2 ([1]; antagonism against deltorphin C as the agonist): 9.2
MVD [1, 9]: 0.7 nM
GPI nM (with pA2) ([2]; guinea-pig ileum): 53 nM
GPI pA2 ([2]; guinea-pig ileum): 7.3

Cc1cc(O)cc(C)c1C[C@H](N)C(=O)N1Cc2ccccc2C[C@H]1C(=O)O [Peptide 1, Dmt-Tic-OH] (H-[Dmt]-[Tic]-OH; N-terminus assumed)
Ki [3]: 3320 nM
δ receptor binding model fitted [4]: one-site binding model
Percent low-affinity sites [4]: 30.7 ± 91.5%
Kb [1]: 6.31 nM
MVD [1, 9]: 5.7 nM
antagonist properties in MVD bioassay [1]: antagonist properties
analgesia in tail flick test ([5]; iv, 100 ug/mouse where stated): no demonstratable analgesia; also recorded: no demonstrable analgesia
block of the effect of morphine in tail flick test ([5]; morphine injected iv (0.25 mg/kg), peptide 100 ug/mouse iv): completely blocked

Cc1cc(O)cc(C)c1C[C@H](N)C(=O)N1Cc2ccccc2C[C@H]1C(N)=O [Peptide 2, Dmt-Tic-NH2] (H-[Dmt]-[Tic]-NH2; N-terminus assumed)
Ki [6]: 1.22 ± 0.09 nM
Ki [4, 10]: 1.06 nM
δ receptor binding model fitted [4]: one-site binding model
Percent low-affinity sites [4]: 6.2 ± 40.1%
Kb [1]: 63.1 nM
MVD [1, 9]: 4.2 nM
antagonist properties in MVD bioassay [1]: antagonist properties
IC50 [2]: > 10 µM

Cc1cc(O)cc(C)c1C[C@H](N)C(=O)N1Cc2ccccc2C[C@@H]1C(=O)O [Peptide 3, Dmt-D-Tic-OH] (H-[Dmt]-[dTic]-OH; N-terminus assumed)
Ki [3]: 224 ± 25.6 nM

Cc1cc(O)cc(C)c1C[C@H](N)C(=O)N1Cc2ccccc2C[C@@H]1C(N)=O [Peptide 4, Dmt-D-Tic-NH2] (H-[Dmt]-[dTic]-NH2; N-terminus assumed)
Ki [6]: 56.9 ± 2.9 nM

Cc1cc(O)cc(C)c1C[C@H](N)C(=O)N1Cc2ccccc2C[C@H]1CO [Peptide 5, Dmt-Tic--CH2 OH]
Ki [6]: 0.44 ± 0.14 nM
μ/δ (receptor selectivity) [6]: 344
Ki [3]: 151 ± 16.3 nM
Ki [4, 10]: 0.13 nM
Ki [4, 11]: 5.2 nM
δ receptor binding model fitted [4]: two-site model
Percent low-affinity sites [4]: 20.9 ± 5.3%
Kb [1]: 100 nM
MVD [1, 9]: 6.6 nM
antagonist properties in MVD bioassay [1]: antagonist properties
IC50 [2]: > 10 µM

Cc1cc(O)cc(C)c1C[C@@H]1NC(=O)[C@@H]2Cc3ccccc3CN2C1=O [Peptide 6, c(Dmt-Tic)]
μ/δ (receptor selectivity) [6]: 66
fold higher δ affinity relative to Tyr-Tic cognate ([6]; vs Tyr-Tic-OH (peptide 12) or c(Tyr-Tic) (peptide 17)): 4,000 fold
Ki [3]: 635 ± 69.3 nM
Ki [4, 10]: 0.09 nM
Ki [4, 11]: 9.4 nM
δ receptor binding model fitted [4]: two-site model
Percent low-affinity sites [4]: 86.8 ± 3.9%
Kb [1]: 3720 nM
MVD nM [1, 9]: 3,800 nM
antagonist properties in MVD bioassay [1]: antagonist properties
IC50 [2]: 20 ± 2 µM

Cc1cc(O)cc(C)c1C[C@@H]1NC(=O)[C@H]2Cc3ccccc3CN2C1=O [Peptide 7, c(Dmt-D-Tic)]
Ki [6]: 499 ± 117 nM
μ/δ (receptor selectivity) [6]: 1.5
Ki [3]: 728 ± 72.9 nM

Cc1cc(O)cc(C)c1C[C@H](N)C(=O)N1Cc2ccccc2C[C@H]1C(=O)N[C@@H](C)C(=O)O [Peptide 8, Dmt-Tic-Ala-OH] (H-[Dmt]-[Tic]-Ala-OH)
Ki [6]: 0.285 ± 0.03 nM
μ/δ (receptor selectivity) [6]: 20,396
Ki [3]: 5810 nM
Ki [4, 10]: 0.12 nM
Ki [4, 11]: 4.8 nM
Kb [1]: 3.98 nM
IC50 [2, 12]: > 10 µM

Cc1cc(O)cc(C)c1C[C@H](N)C(=O)N1Cc2ccccc2C[C@H]1C(=O)N[C@@H](C)C(N)=O [Peptide 9, Dmt-Tic-Ala-NH2] (H-[Dmt]-[Tic]-Ala-NH2)
μ/δ (receptor selectivity) [6]: 195
Ki [4, 10]: 0.18 nM
Ki [4, 11]: 10.7 nM
IC50 [2, 12]: 4.74 ± 0.9 µM

Cc1cc(O)cc(C)c1C[C@H](N)C(=O)N1Cc2ccccc2C[C@@H]1C(=O)N[C@@H](C)C(=O)O [Peptide 10, Dmt-D-Tic-Ala-OH] (H-[Dmt]-[dTic]-Ala-OH)
Ki [6]: 88.7 ± 13.8 nM
μ/δ (receptor selectivity) [6]: 0.93
Ki [3]: 82.8 ± 2 nM

Cc1cc(O)cc(C)c1C[C@H](N)C(=O)N1Cc2ccccc2C[C@@H]1C(=O)N[C@@H](C)C(N)=O [Peptide 11, Dmt-D-Tic-Ala-NH2] (H-[Dmt]-[dTic]-Ala-NH2)
Ki [6]: 46.4 ± 2.7 nM
μ/δ (receptor selectivity) [6]: 0.13
Ki [3]: 5.8 ± 0.85 nM

N[C@@H](Cc1ccc(O)cc1)C(=O)N1Cc2ccccc2C[C@H]1C(=O)O [Peptide 12, Tyr-Tic-OH, reference compound] (H-Tyr-[Tic]-OH)
μ/δ (receptor selectivity) [6]: 148

N[C@@H](Cc1ccc(O)cc1)C(=O)N1Cc2ccccc2C[C@@H]1C(=O)O [Peptide 14, Tyr-D-Tic-OH, reference compound] (H-Tyr-[dTic]-OH)
Ki [6]: 9050 nM
μ/δ (receptor selectivity) [6]: 2.9
Ki [3]: 26300 nM

NC(=O)[C@H]1Cc2ccccc2CN1C(=O)[C@@H](N)Cc1ccc(O)cc1 [Peptide 15, Tyr-D-Tic-NH2] (H-Tyr-[dTic]-NH2)
selectivity change on D-Tic substitution [6]: reversal of selectivity
Ki [7]: 5960 nM
μ/δ (receptor selectivity) [7]: 0.53
Ki [8]: 3130 nM

N[C@@H](Cc1ccc(O)cc1)C(=O)N1Cc2ccccc2C[C@H]1CO [Peptide 16, Tyr-Tic-CH2 OH, reference compound]
Ki [6]: 128 ± 34.7 nM
μ/δ (receptor selectivity) [6]: 86
Ki [3]: 11000 nM

O=C1N[C@@H](Cc2ccc(O)cc2)C(=O)N2Cc3ccccc3C[C@@H]12 [Peptide 17, c(Tyr-Tic), reference compound]
Ki [6]: 41800 nM
μ/δ (receptor selectivity) [6]: 1.2
Ki [3]: 51500 nM

O=C1N[C@@H](Cc2ccc(O)cc2)C(=O)N2Cc3ccccc3C[C@H]12 [Peptide 18, c(Tyr-D-Tic), reference compound]
Ki [6]: 8910 nM
μ/δ (receptor selectivity) [6]: 14
Ki [3]: 128000 nM

C[C@H](NC(=O)[C@H]1Cc2ccccc2CN1C(=O)[C@@H](N)Cc1ccc(O)cc1)C(=O)O [Peptide 21, Tyr-D-Tic-Ala-OH, reference compound] (H-Tyr-[dTic]-Ala-OH)
Ki [6]: 2350 nM
μ/δ (receptor selectivity) [6]: 6
Ki [3]: 14000 nM

C[C@H](NC(=O)[C@H]1Cc2ccccc2CN1C(=O)[C@@H](N)Cc1ccc(O)cc1)C(N)=O [Peptide 22, Tyr-D-Tic-Ala-NH2] (H-Tyr-[dTic]-Ala-NH2)
selectivity change on D-Tic substitution [6]: reversal of selectivity
Ki [7]: 21100 nM
μ/δ (receptor selectivity) [7]: 0.39
Ki [8]: 8150 nM

Tyr-Tic-NH2 [Peptide 13]
Ki [7]: 166 ± 48.1 nM
μ/δ (receptor selectivity) [7]: 173
Ki [8]: 28700 nM

Tyr-[Tic]-Ala-NH2 [Peptide 20]
Ki [7]: 55.5 ± 13.7 nM
μ/δ (receptor selectivity) [7]: 610
Ki [8]: 33800 nM

Tyr-[Tic]-Ala-OH [Peptide 19]
Ki [7]: 56.1 ± 10.3 nM
μ/δ (receptor selectivity) [7]: 148
Ki [8]: 8290 nM
